In one data set the test system is cAMP. As to the kind of experiment: Cellular cAMP immunoassay in CFTR-expressing FRT cells. Type of data set: cell-based, rat. Particulars: 10 μM, 10 min. As to the method:
cAMP and Ca^2+ assays. FRT cells expressing wildtype CFTR were cultured in 12-well plates. After washing with PBS, cells were incubated for 10 min with compounds in the absence or presence of 90 nM forskolin and then lysed. Lysates were assayed for cAMP content using a cAMP immunoassay kit (Parameter cAMP Immunoassay Kit, R&D Systems, Minneapolis, Minn.). For cytoplasmic calcium measurements, FRT cells in 96-well black-walled microplates were loaded with Fluo-4 NW (Invitrogen, Carlsbad, Calif.) and Fluo-4 fluorescence was measured with a plate reader equipped with syringe pumps and monochromators.

For another data set, the system named is CaCC in HT-29 cells. As to the kind of experiment: Non-TMEM16A CaCC plate reader assay in HT-29 cells expressing YFP. Format: cell-based. As to conditions: 10 μM. The method, then:
Platereader assays of chloride channel function. CFTR activity was assayed as described. FRT cells co-expressing YFP and wildtype CFTR were washed with phosphate-buffered saline (PBS) and then incubated for 10 min with test compounds in PBS containing 125 nM forskolin. I^− influx was measured in a plate reader with initial baseline read for 2 s and then for 12 s after rapid addition of an I^−-containing solution. TMEM16A activity was assayed similarly as described using FRT cells co-expressing YFP and TMEM16A. Activity of non-TMEM16A CaCC was assayed as described in HT-29 cells expressing YFP. In each assay initial rates of I^− influx were computed as a linear measure of channel function.

The subject of data set [1] is human bronchial epithelial (HBE) cells. Briefly: Short-circuit current in primary human bronchial epithelial (HBE) cells. Format: cell-based. As to conditions: for short-circuit current responses to ENaC, maximal forskolin or ATP: 10 μM, 10 min pretreatment. As to the method: FIGS. 16A-16E. Characterization of 6k and 12. FIG. 16A. Cellular cAMP in FRT cells following incubation for 10 min with 10 μM 6k or 12, without or with 90 nM forskolin (fsk), as well as forskolin alone (90 nM and 20 μM) and forskolin (20 μM)+IBMX (100 μM) (mean±S.E.M., n=4). FIG. 16B. Cytoplasmic calcium measured by Fluo-4 fluorescence. FRT cells were pretreated for 5 min with 10 μM 6k or 12 (or control), with 100 μM ATP added as a calcium agonist as indicated. FIG. 16C. TMEM16A activity measured in FRT cells expressing YFP showing no inhibition (left, iodide+ATP addition) or activation (right, iodide addition) by 10 μM 6k or 12. FIG. 16D. […] FIG. 16E. (left) Short circuit-current in primary cultures of human bronchial epithelial cells in response to agonists and inhibitors that target key ion transport processes: 20 μM amiloride (ami); 20 μM forskolin (fsk); 10 μM CFTRinh-172; 100 μM ATP. Experiments were done without activator or following 10-min preincubation with 10 μM 6k or 12 (right). CFTR activation by 12 after 100 nM forskolin (20 μM amil, 10 μM CFTRinh-172, 100 μM ATP). Studies in B-E are representative of 2-4 separate sets of experiments.
Short-circuit current measurement. Short-circuit current measurements were done as described. Briefly, Snapwell (Corning Costar, Corning, N.Y.) inserts containing CFTR-expressing FRT cells or human bronchial epithelial cells were mounted in Ussing chambers (Physiological Instruments, San Diego, Calif.). For FRT cells the hemichambers were filled with 5 ml of HCO3^−-buffered solution (basolateral) and half-Cl^− solution (apical), and the basolateral membrane was permeabilized with 250 μg/ml amphotericin B. Symmetrical HCO3^−-buffered solutions were used for human bronchial epithelial cells. Solutions were bubbled with 95% O2/5% CO2 and maintained at 37° C., and short-circuit current was measured on a DVC-1000 voltage clamp (World Precision Instruments Inc., Sarasota, Fla.) using Ag/AgCl electrodes and 3 M KCl agar bridges.

The target in another data set is T1, ΔF508-CFTR (Homo sapiens, UniProt P13569, DEL508-508).
T1 construct: expressed in transfected cells; host or cells: Fischer rat thyroid (FRT) cells
As to the kind of experiment: Short-circuit current in FRT cells expressing ΔF508-CFTR after corrector (VX-809). Particulars: overnight corrector. Format: cell-based. As to the method:
FIGS. 9A-9E. Characterization of CFTR activation by CFTRact-J027. Short-circuit current measured in FRT cells expressing human wild-type CFTR (FIG. 9A) and ΔF508-CFTR (FIG. 9C) showing responses to indicated concentrations of forskolin (fsk), CFTRact-J027, and VX-770. The ΔF508-CFTR-expressing FRT cells were corrected with 3 μM VX-809 at 37° C. for 24 h before measurement. CFTRinh-172 (Inh-172, 10 μM) was added where indicated. FIG. 9B. CFTRact-J027 concentration-dependent activation of wild-type CFTR Cl^− current (S.E.; n=3 cultures). FIG. 9D. Short-circuit current in mouse colon showing responses to indicated concentrations of forskolin (fsk), CFTRact-J027, and CFTRinh-172. FIG. 9E. Assay of cAMP concentration in FRT cells measured following 10-min incubation with indicated concentrations of forskolin and 5 μM CFTRact-J027. Positive controls included forskolin (100 nM and 20 μM), and forskolin plus 3-isobutyl-1-methylxanthine (IBMX, 100 μM) (mean±SE, n=4-8).
The increase in current at high CFTRact-J027 was further increased by forskolin, which may be a consequence of activation of a basolateral membrane cAMP-sensitive K^+ channel that increases the driving force for apical membrane Cl^− secretion.

Another data set deals with mouse colon. Briefly: Short-circuit current in freshly harvested mouse colon. As to conditions: freshly isolated mouse colon; read-out: EC50, increase in short-circuit current (Cl− secretion). As to the method:
Short-circuit current was measured in FRT cells stably expressing wild-type human CFTR cultured on porous filters as described. The basolateral solution contained 130 mM NaCl, 2.7 mM KCl, 1.5 mM KH2PO4, 1 mM CaCl2, 0.5 mM MgCl2, 10 mM glucose, and 10 mM Na-HEPES (pH 7.3, 37° C.). In the apical solution 65 mM NaCl was replaced by Na gluconate, and CaCl2 was increased to 2 mM, and the basolateral membrane was permeabilized with 250 μg/ml amphotericin B. Short-circuit current was measured in freshly harvested adult mouse colon at 37° C. using symmetrical Krebs-bicarbonate buffer.
Short-circuit current measurement. Short-circuit current was measured in FRT cells stably expressing wild-type human CFTR cultured on porous filters as described. The basolateral solution contained 130 mM NaCl, 2.7 mM KCl, 1.5 mM KH2PO4, 1 mM CaCl2, 0.5 mM MgCl2, 10 mM glucose, and 10 mM Na-HEPES (pH 7.3, 37° C.). In the apical solution 65 mM NaCl was replaced by Na gluconate, and CaCl2 was increased to 2 mM, and the basolateral membrane was permeabilized with 250 μg/ml amphotericin B. Short-circuit current was measured in freshly harvested adult mouse colon at 37° C. using symmetrical Krebs-bicarbonate buffer.

A short description of data set [2]: Compound accumulation in systemic tissues after 14 days topical dosing. Type of data set: in vivo, mouse. Particulars: for amount in mouse blood, brain, liver and kidney (below limit of detection): two weeks, three times per day topical 0.1 nmol.

“Also recorded” adds a separate entry of the source. Where only a bound is given, the exact number is not on record here.

T1 sequence (P13569 with tags, fused parts or gaps DEL508-508): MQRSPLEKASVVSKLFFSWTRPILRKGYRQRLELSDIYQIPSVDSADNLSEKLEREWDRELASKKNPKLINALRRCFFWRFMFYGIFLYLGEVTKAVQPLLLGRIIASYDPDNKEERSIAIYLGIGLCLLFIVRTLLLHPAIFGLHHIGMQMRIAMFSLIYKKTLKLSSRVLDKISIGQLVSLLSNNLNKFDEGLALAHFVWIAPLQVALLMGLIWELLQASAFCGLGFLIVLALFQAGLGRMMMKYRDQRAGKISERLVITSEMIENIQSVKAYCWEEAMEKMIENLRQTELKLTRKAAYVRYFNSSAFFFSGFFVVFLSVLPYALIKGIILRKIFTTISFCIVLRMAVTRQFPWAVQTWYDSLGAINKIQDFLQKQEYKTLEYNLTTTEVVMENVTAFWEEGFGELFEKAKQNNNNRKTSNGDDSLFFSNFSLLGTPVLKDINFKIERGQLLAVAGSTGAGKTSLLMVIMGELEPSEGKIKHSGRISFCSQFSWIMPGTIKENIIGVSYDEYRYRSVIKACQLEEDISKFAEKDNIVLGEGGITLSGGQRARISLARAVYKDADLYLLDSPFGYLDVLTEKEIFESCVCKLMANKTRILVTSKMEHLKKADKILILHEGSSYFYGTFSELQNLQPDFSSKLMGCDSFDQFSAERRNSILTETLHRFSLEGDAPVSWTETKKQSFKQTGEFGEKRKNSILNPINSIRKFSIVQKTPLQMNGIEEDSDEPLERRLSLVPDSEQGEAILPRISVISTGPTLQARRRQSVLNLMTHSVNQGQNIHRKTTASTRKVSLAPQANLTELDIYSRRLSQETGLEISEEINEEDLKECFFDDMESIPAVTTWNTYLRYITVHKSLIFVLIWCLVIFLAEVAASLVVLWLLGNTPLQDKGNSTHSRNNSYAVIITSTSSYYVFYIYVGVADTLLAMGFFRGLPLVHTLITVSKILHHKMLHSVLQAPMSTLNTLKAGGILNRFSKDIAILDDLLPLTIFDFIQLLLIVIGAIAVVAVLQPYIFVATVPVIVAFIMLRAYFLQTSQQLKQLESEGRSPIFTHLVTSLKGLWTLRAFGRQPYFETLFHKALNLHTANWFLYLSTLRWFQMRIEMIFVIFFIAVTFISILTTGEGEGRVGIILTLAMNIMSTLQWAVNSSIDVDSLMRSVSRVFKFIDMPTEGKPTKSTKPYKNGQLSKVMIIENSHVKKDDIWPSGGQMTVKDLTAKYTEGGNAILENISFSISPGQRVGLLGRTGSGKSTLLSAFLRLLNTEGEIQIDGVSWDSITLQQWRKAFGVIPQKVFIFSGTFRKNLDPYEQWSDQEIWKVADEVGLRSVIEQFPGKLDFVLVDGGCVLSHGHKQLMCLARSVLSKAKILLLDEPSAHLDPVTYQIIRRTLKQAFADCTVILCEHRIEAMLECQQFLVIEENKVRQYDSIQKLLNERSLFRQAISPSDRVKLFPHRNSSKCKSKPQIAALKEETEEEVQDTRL

With `CNc1nc(Nc2ccccc2)nc(OCC(F)(F)C(F)F)n1` [compound 12, N-methyl-N′-phenyl-6-(2,2,3,3-tetrafluoropropoxy)-1,3,5-triazine-2,4-diamine], the “cellular cAMP” value in the data set with cAMP is listed as “without causing cAMP or calcium elevation; also recorded: did not elevate cellular cAMP”. Besides, the “effect on calcium-activated chloride channels in HT-29 cells” value with CaCC in HT-29 cells is “no activation; also recorded: neither inhibited nor activated”. In addition, the “CFTR activation in HBE cells after forskolin” value in data set [1] (0.1 μM, following 100 nM forskolin) is on record as “fully activated CFTR”. The “short-circuit current responses to ENaC, maximal forskolin or ATP” value in data set [1] was “did not alter short-circuit current responses”. Moreover, the “CFTR activation in HBE cells without forskolin” value in data set [1] (absence of basal CFTR phosphorylation) is reported as “did not activate CFTR”.
Consider `CCN(CC)c1nc(Nc2ccc3ncsc3c2)nc(OC(C(F)(F)F)C(F)(F)F)n1` [6k, N′-(1,3-Benzothiazol-6-yl)-N,N-diethyl-6-[(1,1,1,3,3,3-hexafluoropropan-2-yl)oxy]-1,3,5-triazine-2,4-diamine], for which the “cellular cAMP” value in the data set on cAMP is recorded as “did not elevate cellular cAMP”. In addition, the “effect on calcium-activated chloride channels in HT-29 cells” value in the data set on CaCC in HT-29 cells was “no activation; also recorded: neither inhibited nor activated”. Also, the “short-circuit current responses to ENaC, maximal forskolin or ATP” value in data set [1] was “did not alter short-circuit current responses”.
What is called EC50 is the concentration at which the effect is half-maximal. Turning to `Nc1ccc([N+](=O)[O-])cc1-c1nc2ccccc2n(Cc2ccccc2)c1=O` [CFTRact-J027, 3-(2-amino-5-nitrophenyl)-1-benzylquinoxalin-2(1H)-one], the “potentiation of ΔF508-CFTR” value at ΔF508-CFTR is reported as “substantially less potent than ivacaftor; also recorded: only a weak potentiator”. In addition, in the data set on mouse colon, the EC50 is around 300 nM. Moreover, the “amount in mouse blood, brain, liver and kidney (below limit of detection)” value in data set [2] was below 700 fmol.
Regarding `CCN(CC)c1nc(Nc2ccccc2)nc(OC(C(F)(F)F)C(F)(F)F)n1` [CFTRact-K089, N,N-Diethyl-6-[(1,1,1,3,3,3-hexafluoropropan-2-yl)oxy]-N′-phenyl-1,3,5-triazine-2,4-diamine], the “systemic absorption, in words” value in data set [2] (topical) was “without detectable systemic absorption”. Moreover, the “amount in mouse blood, brain, liver and kidney (below limit of detection)” value in data set [2] is given as below 10 fmol.
